According to patent publication US20250351832A1, “PHYTOCHEMICALS AS BIOPESTICIDES AND BIOSTIMULANTS” (KAY BEE BIO ORGANICS PVT. LTD., priority 2024, published 2025):
Like-named read-outs stand apart in the source and are kept apart here.

Columns and labels:
[1] = test system: Alternaria alternata; assay: In vitro poisoned food technique against fungus (Ex. 20); format: cell-based; details: poisoned food technique, PDA medium, dose 1 ml/gm/lit., after seven days
[2] = test system: Alternaria alternata; assay: Alternaria leaf spot/blight on inoculated tomato plants (Ex. 28); format: in vivo; details: tomato plants, Alternaria alternata; after 7 days; dose 1 ml/gm/lit
[3] = test system: tomato seedlings; assay: Response of tomato plants, greenhouse growth (Ex. 30); format: in vivo; details: tomato seedlings, dose 1 ml/gm/lit
[4] = test system: chili seedlings; assay: Response of chili plants, greenhouse growth (Ex. 31); format: in vivo; details: chili seedlings, dose 1 ml/gm/lit
[5] = test system: Aphid; details: Dose 1 ml/gm/lit.
[6] = test system: Mite; details: Dose 1 ml/gm/lit.
[7] = test system: Mealy Bug; details: Mealy Bug on cotton leaves, dose 1 ml/gm/lit., 48 Hrs.
[8] = test system: Helicoverpa armigera; details: Helicoverpa armigera on okra fruits, dose 1 ml/gm/lit., 72 Hrs.
[9] = test system: Spodoptera litura; details: Spodoptera litura on castor leaves; dose 1 ml/gm/lit.; 10 insects/treatment; 72 hrs after application
[10] = test system: Thrips; details: Thrips on cotton leaves; dose 1 ml/gm/lit.; 10 insects/treatment; 48 hrs after application
[11] = test system: Aphid; details: Aphids on cotton plants, green house; dose 1 ml/gm/lit.; 10 insects/plant, 10 plants/treatment; 48 hrs
[12] = test system: Mite; details: mite on okra plants, green house, dose 1 ml/gm/lit. spray
[13] = test system: Mealy Bug; details: mealy bug on cotton plants, green house, dose 1 ml/gm/lit. spray
[14] = test system: Helicoverpa armigera; details: Helicoverpa armigera 3rd instar on chickpea plants, dose 1 ml/gm/lit. spray
[15] = test system: Spodoptera litura; details: Spodoptera litura 3rd instar on cabbage plants, dose 1 ml/gm/lit. spray
[16] = test system: Thrips; details: thrips on cotton plants, greenhouse, dose 1 ml/gm/lit. spray
[17] = cited from earlier work
[18] = test system: Spodoptera litura; assay: whole plant or invertebrate; details: 72 h
[19] = test system: Thrips; assay: whole plant or invertebrate; details: in Gossypium hirsutum, 48 h
[20] = test system: Aphid; assay: whole plant or invertebrate; details: 48 h
[21] = 10 insects/treatment, 4 replications
[22] = 48 hrs, corrected for water control
[23] = 72 hrs, corrected for water control
[24] = Table 13, descriptive, no test described
[25] = read-out: % Corrected Mortality at 48 Hrs.
[26] = read-out: % Mortality at 48 Hrs.

With `CCCCCCCCCC(C)=O` [Embodiment 2-undecanone, 2-undecanone] the “Mean colony Diameter (mm)” value [1] was 52.00 mm, the inhibition of growth at 1 mL or g/L ([1]; vs untreated control, read-out: % Inhibition of growth) was 40.9% and the “% Disease reduction over Control” value [2] was 58.68%. For the same compound, the “Plant Height 5th Day” value ([3]; 5th day after application) was 6.48 cm, the “Stem Girth 5th Day” value ([3]; 5th day after application) was 1.61 mm and the “Plant Height 10th Day” value ([3]; 10th day after application) was 7.56 cm. For the same compound, the “Stem Girth 10th Day” value ([3]; 10th day after application) was 2.40 mm, the “Plant Height % Increase over pre on 10th Day” value ([3]; 10th day) was 40.52% and the “Stem Girth % Increase over pre on 10th Day” value ([3]; 10th day) was 68.29%. The “CCI 5th Day” value ([3]; 5th day after application) was 13.42, the “CCI % Increase over pre on 10th Day” value ([3]; 10th day) was 30.95% and the “Root Length (cm) 10th Day” value ([3]; 10th day) was 4.54 cm. The “CCI 10th Day” value ([3]; 10th day after application) was 15.23, the “Root Length % Increase over control” value ([3]; 10th day, vs water control) was 36.48% and the “CCI 5th Day” value ([4]; 5th day after application) was 13.57. For the same compound, the “Plant Height (cm) 5th Day” value ([4]; 5th day after application) was 5.97 cm, the “CCI % Increase over pre on 10th Day” value ([4]; 10th day) was 70.42% and the “Plant Height % Increase over pre on 10th Day” value ([4]; 10th day) was 68.11%. For the same compound, the “Root Lenght (cm) 10th Day” value ([4]; 10th day) was 4.44 cm, the “Stem Girth % Increase over pre on 10th Day” value ([4]; 10th day) was 60.61% and the “CCI 10th Day” value ([4]; 10th day after application) was 15.15. For the same compound, the “Plant Height (cm) 10th Day” value ([4]; 10th day after application) was 6.59 cm, the “Root Lenght % Increase over control” value ([4]; 10th day, vs water control) was 62.21% and the “Total No. of dead insect at 48 Hrs.” value ([5]; 10 insects/treatment, 4 replications, cotton leaves) was 6.75. The “% Corrected Mortality at 48 Hrs.” value ([5]; 48 hrs) was 62.86%, the “Total No. of dead insect at 48 Hrs.” value ([6]; 10 insects/treatment, 4 replications, okra leaves) was 3.00 and the “% Corrected Mortality at 48 Hrs.” value ([6]; 48 hrs) was 24.32%. For the same compound, the “% Mortality at 48 Hrs.” value ([6]; 48 hrs) was 30.00%, the “Total No. of dead insect at 48 Hrs.” value [7, 21] was 5.50 and the “% Mortality at 48 Hrs.” value [7] was 55.00%. The “% Corrected Mortality at 48 Hrs.” value ([7]; corrected for water control) was 52.63%, the “Total No. of dead insect at 72 Hrs.” value [8, 21] was 5.50 and the “% Mortality at 72 Hrs.” value [8] was 55.00%. For the same compound, the “% Corrected Mortality at 72 Hrs.” value ([8]; corrected for water control) was 55.00%, the “Total No. of dead insect at 72 Hrs.” value [9] was 4.00 and the “Total No. of dead insect at 48 Hrs.” value [10] was 5.00. For the same compound, the “Total No. of dead insect at 48 Hrs.” value [11] was 67.50, the “% Mortality at 48 Hrs.” value ([12]; 48 hrs after application) was 27.50% and the “Total No. of dead insect at 48 Hrs.” value ([12]; 48 hrs after application) was 27.50. For the same compound, the “% Corrected Mortality at 48 Hrs.” value [12, 22] was 23.68%, the “% Mortality at 48 Hrs.” value ([13]; 48 hrs after application) was 57.50% and the “Total No. of dead insect at 48 Hrs.” value ([13]; 48 hrs after application) was 57.50. For the same compound, the “% Corrected Mortality at 48 Hrs.” value [13, 22] was 52.78%, the “% Mortality at 72 Hrs.” value ([14]; 72 hrs after application) was 52.50% and the “% Corrected Mortality at 72 Hrs.” value [14, 23] was 52.50%. The “% Mortality at 72 Hrs.” value ([15]; 72 hrs after application) was 42.50%, the “% Corrected Mortality at 72 Hrs.” value [15, 23] was 39.47% and the “% Mortality at 48 Hrs.” value ([16]; 48 hrs after application) was 47.50%. The “Total No. of dead insect at 48 Hrs.” value ([16]; 48 hrs after application) was 47.50, the “% Corrected Mortality at 48 Hrs.” value [16, 22] was 41.67% and the “Antifungal Activity - Mode of action” value [17, 24] was “Antifungal and repellent”. The “Bactericidal Activity - Mode of action” value [17, 24] was “Moderate anti-bacterial”, the “Insecticidal Activities - Mode of action” value [17, 24] was “Insecticidal action,” and the “Phytotonic Effect” value ([17]; Table 13, effect on plants, descriptive) was “Increasing root”. It also gave a mortality at 1 mL or g/L ([18]; read-out: % Corrected Mortality at 72 Hrs.) of 36.8%, a mortality at 1 mL or g/L ([18]; read-out: % Mortality at 72 Hrs.) of 40% and a mortality at 1 mL or g/L [19, 25] of 42.9%. For the same compound, the mortality at 1 mL or g/L [19, 26] was 50%, the mortality at 1 mL or g/L [20, 25] was 61.8% and the mortality at 1 mL or g/L [20, 26] was 67.5%.
